# Experimental data from PMC8759731, “Design, synthesis, and evaluation of novel coumarin-dithiocarbamate derivatives (IDs) as anti-colorectal cancer agents” (Journal of Enzyme Inhibition and Medicinal Chemistry, 2021).
# Tests used:
# [1] = test system: SW480 cells; test: Western blot assay, SW480 cells; type: cell-based, human; settings: 24 h
# Description: (§1) Cells were cultured in 6-well plates at a density of 40,000 cells per well overnight, and then exposed to selected compounds at different concentrations for 24 h. Subsequently, the cells were lysed in lysate buffer containing 50 mM Tris-HCl (PH 6.8), 2% SDS, 0.1% bromophenol blue, 1.5% DTT, 10% glycerol. The total protein extracts were boiled, sonicated, separated by 10–12% SDS-PAGE gels and transferred to polyvinylidene fluoride (PVDF) membranes. Then the membranes were blocked with 5% non-fat milk at room temperature for 1 h and incubated with primary antibodies at 4 °C overnight. After that, membranes were washed with 1× TBST for three times and incubated with secondary antibody at room temperature for 2 h. Finally, after washing with 1× TBST for three times, the bolts were visualised by an enhanced chemiluminescence kit (Beyotime, China) using the Amersham Imager 600 system (GE Healthcare Life Science, Shanghai, China).
# [2] = test system: RKO cells; test: MTS cell viability assay, RKO cells; type: cell-based; settings: Homo sapiens, 72 h
# Description: (§2) Human colorectal cancer cell lines including RKO, SW620 and SW480 were purchased from Chinese Academy of Sciences, a typical cell library culture preservation committee (Shanghai, China). Normal human colon epithelial cell line NCM460 was purchased from ATCC (Washington, DC, USA). RPMI-1640 medium (12633020), foetal bovine serum (FBS, 26170043), penicillin-streptomycin (10378016) and phosphate buffered saline (PBS, 70011044) were purchased from Gibco (Eggenstein, Germany). 5-Fluorouracil (5-FU, E0201010050, purity ≥98%) was purchased from Energy Chemical (Shanghai, China). Dimethyl sulfoxide (DMSO, 41639) was obtained from Sigma-Aldrich (St. Louis, MO). 3–(4,5-dimethylthiazol-2-yl)-5–(3-carboxymethoxyphenyl)-2–(4-sulfophenyl)-2H-tetrazolium (MTS, G1111) was purchased from Promega (Madison, WI, USA). All cell lines were cultured in RPMI-1640 medium supplemented with 10% FBS, penicillin (100 units/mL) and streptomycin ([…]) at 37 °C in a humidified atmosphere containing 5% CO2.
# (§3) Cell viability was measured via MTS assay. RKO, SW620, SW480 and NCM460 cells were seeded in 96-well plates at a density of 5000 cells per well for 24 h. After treatment with the test compounds at indicated concentration for another 48 h or 72 h at 37 °C, MTS solution was added to each well and incubated for another 30 min at 37 °C. Then, the absorbance at 490 nm was measured by a BioTek Synergy H4 microplate Reader (Vermont, USA). The IC50 values were calculated with Graphpad 7.0 software packages.
# [3] = test system: SW480 cells; test: Cell cycle analysis (PI, flow cytometry), SW480 cells; type: cell-based, human; settings: SW480, 16 μM, 24 h
# Description: Cells were seeded in 6-well plates (40,000 cells per well) and cultured in RPMI-1640 medium containing 10% FBS overnight. Then the cells were exposed to DMSO or compound ID-11 (8 or 16 μM) for 24 h. After that, cells were collected, washed with cold PBS for twice and fixed in 75% ethanol overnight at 4 °C. Subsequently, ethanol was removed and suspended in PBS for twice, and then RNase A and propidium iodide (PI) (Multi Sciences, Hangzhou, China) was added and keep in the darkness for 30 min. Finally, the percentages of cells in different cell cycle phases were measured using a FACS Calibur flow cytometer (Bectone Dickinson, San Jose, CA, USA).
# [4] = test system: SW620 cells; test: Western blot assay, SW620 cells; type: cell-based, human; settings: 24 h
# Description: as §1
# [5] = test system: NCM460 cells; test: MTS cell viability assay, NCM460 normal colon epithelial cells; type: cell-based, human; settings: Homo sapiens, 48 h
# Description: as §2, §3
# [6] = as above; type: cell-based, human; settings: human, NCM460 normal colon epithelial cells, 10 μM
# Description: as §2, §3
smiles,measurement,setting,value
"O=c1ccc2cc(CSC(=S)n3ccnc3)ccc2o1 [ID-11, (2-Oxo-2H-chromen-6-yl)methyl 1H-imidazole-1-carbodithioate]",expression level of cdc2,"[1]; SW480, 0 to 16 μM",decreased in a concentration-dependent way
same,expression level of cleaved PARP,"[1]; SW480, 0 to 16 μM",increased in a dose-dependent way
same,expression level of cyclin B1,"[1]; SW480, 0 to 16 μM",decreased in a concentration-dependent way
same,protein expression level of Bcl-2,"[1]; SW480, 0 to 24 μM",decreased
same,protein expression level of c-Myc,"[1]; SW480, 0 to 24 μM",decreased
same,viability at 10 µM,[2]; 10 μM,29.4%
same,IC50,[2],6.4 µM
same,melting point,,139.1 to 140 °C
same,cell cycle distribution G2 (G2/M phase),[3],21.03%
same,expression level of cdc2,"[4]; SW620, 0 to 16 μM",decreased in a concentration-dependent way
same,expression level of cleaved PARP,"[4]; SW620, 0 to 16 μM",increased in a dose-dependent way
same,expression level of cyclin B1,"[4]; SW620, 0 to 16 μM",decreased in a concentration-dependent way
same,protein expression level of Bcl-2,"[4]; SW620, 0 to 24 μM",decreased
same,protein expression level of c-Myc,"[4]; SW620, 0 to 24 μM",decreased
same,IC50,[5],23.9 µM
same,"viability at 48 h, 10 µM",[6],80.8%
